What follows are compounds tested on RSV Long strain (assay: Viral cytopathic effect (CPE) assay, anti-RSV activity). Conditions: human respiratory syncytial virus, 144 h, RSV Long strain (ATCC); cell viability after 6 days, Cell Counting kit-8.
Format: cell-based, Respiratory Syncytial Virus
In short: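 EC50 was derived from CCK-8 viability at 450/630 nm measured 6 days post-infection. Infection used enough RSV Long strain for approximately 80–90% cytopathic effect, in the presence of half-log serially diluted compound. Cells were plated the day before at 6×10^3 per well in DMEM/10% FBS.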
For `Cc1ccc2nc(N3CCC(F)(F)c4ccccc4C3)cc(N(C)CCN)c2c1` [Example 111-3, N-[2-(5,5-Difluoro-1,3,4,5-tetrahydro-2H-2-benzazepin-2-yl)-6-methylquinolin-4-yl]-N-methylethane-1,2-diamine], the EC50 was 0.0768 µM.
In the case of `Cc1ccc2nc(N3CCS(=O)(=O)c4ccccc4C3)nc(NCC3(N)CCC3)c2c1` [Example 61-2, N-[(1-Aminocyclobutyl)methyl]-2-(1,1-dioxido-2,3-dihydro-1,4-benzothiazepin-4(5H)-yl)-6-methylquinazolin-4-amine], the EC50 is reported as 0.097 µM.
With `COc1ccc2c(c1)CN(c1cc(NCC3(CN)COC3)c3ccccc3n1)CCS2(=O)=O` [Example 3-4, N-{[3-(Aminomethyl)oxetan-3-yl]methyl}-2-(7-methoxy-1,1-dioxido-2,3-dihydro-1,4-benzothiazepin-4(5H)-yl)-quinolin-4-amine] the EC50 was 0.006 µM.
`NCCNc1cc(N2CCOc3ccccc3C2)nc2ccccc12` [Example 134, N-[2-(2,3-Dihydro-1,4-benzoxazepin-4(5H)-yl)quinolin-4-yl]ethane-1,2-diamine] was tested, and the EC50 was 0.25 µM.
In the case of `Cc1ccc2nc(N3CCS(=O)(=O)c4ccccc4C3)cc(NCC3CN=C(N)O3)c2c1` (stereo not drawn) [Example 38-1, N-[(2-Amino-4,5-dihydro-1,3-oxazol-5-yl)methyl]-2-(1,1-dioxido-2,3-dihydro-1,4-benzothiazepin-4(5H)-yl)-6-methylquinolin-4-amine], the EC50 is reported as 0.01 µM.
`COc1ccc2c(c1)S(=O)(=O)CCN(c1cc(NCC3(N)COC3)c3cc(C)ccc3n1)C2` [Example 1-1, N-[(3-Aminooxetan-3-yl)methyl]-2-(8-methoxy-1,1-dioxido-2,3-dihydro-1,4-benzothiazepin-4(5H)-yl)-6-methylquinolin-4-amine] gave an EC50 of 0.002 µM.
`CCS(=O)(=O)c1ccc2c(c1)CCCN(c1cc(NCCN)c3ccccc3n1)C2` [Example 120-2, N-{2-[7-(Ethylsulfonyl)-1,3,4,5-tetrahydro-2H-2-benzazepin-2-yl]quinolin-4-yl}ethane-1,2-diamine] was tested, and the EC50 was 1.79 µM.
In the case of `Cc1ccc2nc(N3CCSc4ccccc4C3)cc(NCC3(N)COC3)c2c1` [Example 4-3, N-[(3-Aminooxetan-3-yl)methyl]-2-(2,3-dihydro-1,4-benzothiazepin-4(5 H)-yl)-6-methylquinolin-4-amine], the EC50 is reported as 0.026 µM.
`Cc1ccc2nc(N3CCS(=O)(=O)c4ccccc4C3)cc(NC(=O)Nc3ccccc3)c2c1` [Example 50-1, 1-[2-(1,1-Dioxido-2,3-dihydro-1,4-benzothiazepin-4(5H)-yl)-6-methylquinolin-4-yl]-3-phenylurea] was tested, and the EC50 was 0.931 µM.
For `Cc1ccc2nc(N3CCS(=O)(=O)c4ccccc4C3)cc(NCCO)c2c1` [Example 3-38, 2-{[2-(1,1-Dioxido-2,3-dihydro-1,4-benzothiazepin-4(5H)-yl)-6-methylquinolin-4-yl]amino}ethanol], the EC50 was 0.0439 µM.
In the case of `Cc1ccc2nc(N3CCS(=O)(=O)c4ccccc4C3)cc(NCCC(N)=O)c2c1` [Example 36-1, N^˜3^˜-[2-(1,1-Dioxido-2,3-dihydro-1,4-benzothiazepin-4(5H)-yl)-6-methylquinolin-4-yl]-beta-alaninamide], the EC50 is reported as 0.073 µM.
With `Cc1ccc2nc(N3CCS(=O)(=O)c4ccccc4C3)cc(N3C[C@@H](O)[C@H](N4CCN(C)CC4)C3)c2c1` [Example 8-6, (3R,4R)-1-[2-(1,1-Dioxido-2,3-dihydro-1,4-benzothiazepin-4(5H)-yl)-6-methylquinolin-4-yl]-4-(4-methylpiperazin-1-yl)pyrrolidin-3-ol] the EC50 was 3.77 µM.
Work on `CCN(CCNc1cc(N2CCS(=O)(=O)c3ccccc3C2)nc2ccc(C)cc12)C1COC1` [Example 44-2, N′-[2-(1,1-Dioxido-2,3-dihydro-1,4-benzothiazepin-4(5H)-yl)-6-methylquinolin-4-yl]-N-ethyl-N-(oxetan-3-yl)ethane-1,2-diamine] yielded an EC50 of 1.55 µM.
Compound `Cc1ccc2nc(N3CCS(=O)(=O)c4ccccc4C3)cc(N[C@H]3CC[C@H](O)CC3)c2c1` [Example 8-1, trans-4-{[2-(1,1-Dioxido-2,3-dihydro-1,4-benzothiazepin-4(5H)-yl)-6-methylquinolin-4-yl]amino}cyclohexanol] has an EC50 of 5.51 µM.
`Cc1ccc2nc(N3CCC(F)(F)c4ccccc4C3)cc(NCCCO)c2c1` [Example 110-6, 3-{[2-(5,5-Difluoro-1,3,4,5-tetrahydro-2H-2-benzazepin-2-yl)-6-methylquinolin-4-yl]amino}propan-1-ol] showed an EC50 of 4.28 µM.
`Cc1ccc2nc(N3CCS(=O)(=O)c4ccccc4C3)cc(NCCS(C)(=N)=O)c2c1` (stereo not drawn) [Example 77, 2-(1,1-Dioxido-2,3-dihydro-1,4-benzothiazepin-4(5H)-yl)-6-methyl-N-[2-(S-methylsulfonimidoyl)ethyl]quinolin-4-amine] showed an EC50 of 8.78 µM.
In the case of `NCCNc1cc(N2Cc3ccc(Br)cc3CCC2=O)nc2ccccc12` [Example 124, 2-{4-[(2-Aminoethyl)amino]quinolin-2-yl}-7-bromo-1,2,4,5-tetrahydro-3H-2-benz azepin-3-one], the EC50 is reported as 6.1 µM.
`Cc1ccc2nc(N3CCS(=O)(=O)c4ccccc4C3)cc(NCC3(N)CCOCC3)c2c1` [Example 2-3, N-[(4-Aminotetrahydro-2H-pyran-4-yl)methyl]-2-(1,1-dioxido-2,3-dihydro-1,4-benzothiazepin-4(5H)-yl)-6-methylquinolin-4-amine] showed an EC50 of 2.81 µM.
`NCCCNc1cc(N2CCS(=O)(=O)c3ccccc3C2)nc2ccc(OCCO)cc12` [Example 30-1, 2-({4-[(3-Aminopropyl)amino]-2-(1,1-dioxido-2,3-dihydro-1,4-benzothiazepin-4(5 H)-yl)quinolin-6-yl}oxy)ethanol] gave an EC50 of 0.317 µM.
With `Cc1ccc2nc(N3CCS(=O)(=O)c4ccccc4C3)cc(NCC3(CN)CS(=O)(=O)C3)c2c1` [Example 6-2, N-{[3-(Aminomethyl)-1,1-dioxidothietan-3-yl]methyl}-2-(1,1-dioxido-2,3-dihydro-1,4-benzothiazepin-4(5H)-yl)-6-methylquinolin-4-amine] the EC50 was 0.908 µM.
Compound `Cc1ccc2nc(N3CCS(=O)(=O)c4ccccc4C3)cc(NCC3(CN)CSC3)c2c1` [Example 6-1, N-{[3-(Aminomethyl)thietan-3-yl]methyl}-2-(1,1-dioxido-2,3-dihydro-1,4-benzothiazepin-4(5H)-yl)-6-methylquinolin-4-amine] has an EC50 of 0.025 µM.
Work on `NCC1(CNc2nc(N3CCS(=O)(=O)c4ccccc4C3)nc3ccc(CO)cc23)COC1` [Example 109-2, [4-({[3-(Aminomethyl)oxetan-3-yl]methyl}amino)-2-(1,1-dioxido-2,3-dihydro-1,4-benzothiazepin-4(5H)-yl)quinazolin-6-yl]methanol] yielded an EC50 of 0.0015 µM.
`Cc1ccc2c(c1)S(=O)(=O)CCN(c1cc(NCC3(CN)COC3)c3cc(C)ccc3n1)C2` [Example 3-8, N-{[3-(Aminomethyl)oxetan-3-yl]methyl}-6-methyl-2-(8-methyl-1,1-dioxido-2,3-dihydro-1,4-benzothiazepin-4(5H)-yl)quinolin-4-amine] showed an EC50 of 0.002 µM.
`NCC1(CNc2nc(N3CCS(=O)(=O)c4ccccc4C3)nc3ccc(Cl)cc23)COC1` [Example 56-3, N-{[3-(aminomethyl)oxetan-3-yl]methyl}-6-chloro-2-(1,1-dioxido-2,3-dihydro-1,4-benzothiazepin-4(5H)-yl)quinazolin-4-amine] gave an EC50 of 0.004 µM.
